The results in this text go back to patent publication US8846699B2, “Quinazoline derivatives as a multiplex inhibitor and method for the preparation thereof” (Hanmi Pharm. Co., Ltd., priority 2005, dated 2014).

Assay [1] has as its system colon and rectal cancer cell line, SW-620. Kind of assay: Inhibitory effect on growth of cancer cell line SW-620, SRB. It is filed as cell-based. Conditions: not having overexpressed EGFR and EGFR2. An excerpt:
(§1) A skin cancer cell line, A431 (ATCC: CRL-1555), a breast cancer cell line, SK-Br3 (ATCC: HTB-30), and a colon and rectal cancer cell line, SW-620 (ATCC: CCL-227) were used to test the degrees of cancer cell growth inhibition using a culture medium, DEME (Dulbecco's Modified Eagle's Medium, JBI) including 4.5 g/l of glucose and 1.5 g/l of sodium bicarbonate and supplemented with 10% FBS (fetal bovine serum, JBI).
(§2) The cancer cell lines stored in a liquid nitrogen tank were each quickly thawed at 37° C., and centrifuged to remove the medium. The resulting cell pellet was mixed with a culture medium, incubated in a culture flask at 37° C. under 5% CO2 for 2 to 3 days, and the medium was removed. The remaining cells were washed with DPBS (Dulbecco's Phosphate Buffered Saline, JBI) and separated from the flask by using Trypsin-EDTA solution, and the separated cells were diluted with a culture medium to a concentration of 1.0×10^6 cells/ml in case of A431 and SW-620, and 2.0×10^6 cells/ml in case of SK-Br3. 100 μl of the diluted cell solution was added to each well of a 96-well plate, which was incubated at 37° C. under 5% CO2 for 1 day.
(§3) In case that the test compound was not soluble in DMSO, a small amount of 1% HCl was added thereto and treated in a 40° C. water bath for 30 mins until complete dissolution was attained. The test compound solution was diluted with a culture medium to a final concentration of 10 μM, and then diluted 10 times serially to 10^−4. The final concentration of DMSO was less than 1%, and the control compounds of Test Example 1 were used at a concentration of 0.0001 to 10 μM.
(§4) The medium was removed from each well of the 96-well microplate, 100 μl of a diluted test compound solution was added to each well holding cultured cells, and the microplate was incubated at 37° C. under 5% CO2 for 72 hours. After removing the medium from the plate, 50 μl of 10% trichloroacetic acid was added to each well, and the plate was kept at 37° C. for 1 hour to fix the cells to the bottom of the plate. 10% trichloroacetic acid was removed from each well, the plate was dried, 100 μl of an SRB (Sulforhodamine-B, Sigma) dye solution was added thereto, and reacted for 10 mins. The SRB dye solution was prepared by dissolving SRB in 1% acetic acid to a concentration of 0.4%. After removing the dye solution, the plate was washed with water, and dried. When the dye solution was not removed by water, 1% acetic acid was used.
(§5) 150 μl of 10 mM trisma base (Sigma) was added to each well, and the absorbance at 570 nm was determined with a microplate reader (Molecular device).

Assay [2] deals with Human Umbilical Vein Endothelial Cell (HUVEC). Kind of assay: Inhibitory effect on growth of human umbilical vein endothelial cell (HUVEC), MTS. It is filed as cell-based. The settings on record: 10 ng/ml VEGF, absorbance 490 nm. The procedure:
HUVECs (Young Science, Inc) were suspended in a culture medium, EBM-2 (Endothelial Basic Media, Cambrex) supplemented with 2% bovine serum (Cambrex) and auxiliary additives for HUVEC culture (e.g., EGF, VEGF, FGF, etc., Cambrex), inoculated into a culture flask coated with 1% gelatin, and incubated in an incubator at 37° C. under 5% CO2 and 100% humidity.
100 μl of 5% bovine serum medium containing 10 ng/ml of vascular endothelial growth factor (VEGF) and auxiliary additives, while excluding other growth factors was added to each well of a 96-well plate. […] DMSO (Dimethylsulfoxide) was used to dissolve the test compounds, and the final concentration of DMSO was less than 1%.
100 μl of the diluted cell solution was added to each well of the 96-well plate, which was incubated in an incubator for 96 hours.
Then, 20 μl of MTS ([…], Promega) solution was added to each well of the plate, and the plate was incubated in an incubator for 4 hours to induce discoloration. After 4 hours, the pellets were dissolved by way of a thorough shaking, and the absorbance at 490 nm was determined.

Another assay has as its target EGFR1 (HER-1) (Homo sapiens (Human), UniProt P00533). Kind of assay: EGFR1 (HER-1) enzyme assay, fluorescence polarization. The format is biochemical. Conditions: 100 μM ATP, poly(Glu, Tyr) substrate. A general note: In fluorescence polarisation assays a small probe gives low polarisation when free and higher when bound to something large.
In a further assay the target is VEGFR2 (KDR) (Homo sapiens (Human), UniProt P35968). The assay can be described thus: VEGFR2 (KDR) enzyme assay, fluorescence polarization. The settings on record: 5 μM ATP, poly(Glu, Tyr) substrate. It is filed as biochemical. The procedure: VEGFR2 (KDR, Proquinase) enzyme assay (auto-phosphorylation assay) was carried out by using Tyrosine Kinase Assay Kit Green (Panvera). The entire assay was conducted in accordance with VEGFR PTK inhibitor cellular activity test S.O.P.
A typical kinase inhibition reaction requires a protein tyrosine kinase, a suitable buffer solution system, a peptide substrate and ATP. In the present VEGFR tyrosine kinase assay, a buffer solution system containing 20 mM HEPES (pH 7.4), 5 mM MgCl2 and 2 mM MnCl2; 50 μM Na3VO4; 200 ng/10 μl VEGFR (Proquinase); 5 μM ATP; and 10 ng/ml poly(Glu, Tyr) (4:1, Sigma) as a substrate were used.
The compounds of Test Example 1 were used as control compounds at a concentration of 0.0001 to 10 μM. After 10 min, 10 μl of poly(Glu, Tyr) as a substrate was added to each well, and 10 μl of ATP was added thereto to initiate kinase reaction. The plate was incubated at room temperature for 1 hour, and 10 μl of 100 mM EDTA was added to each well to terminate the kinase reaction.
The added EDTA was mixed for 5 min. Thereafter, 10 μl of 10× anti-phosphotyrosine antibody (Panvera), 10 μl of 10×PTK Green Tracer (Panvera) and 30 μl of FP dilution buffer (Panvera) were added thereto, and the plate was incubated in a dark room at room temperature for 30 min.

Assay [3] relates to skin cancer cell line, A431. The assay can be described thus: Inhibitory effect on growth of cancer cell line A431, SRB. Conditions: overexpressed EGFR1 (HER-1). It is filed as cell-based.
Text: as §1, §2, §3, §4, §5

Assay [4] deals with breast cancer cell line, SK-Br3. Kind of assay: Inhibitory effect on growth of cancer cell line SK-Br3, SRB. It is filed as cell-based. Conditions: overexpressed EGFR2 (HER-2).
Text: as §1, §2, §3, §4, §5

Chain of VEGFR2 (KDR) (P35968 20-1356): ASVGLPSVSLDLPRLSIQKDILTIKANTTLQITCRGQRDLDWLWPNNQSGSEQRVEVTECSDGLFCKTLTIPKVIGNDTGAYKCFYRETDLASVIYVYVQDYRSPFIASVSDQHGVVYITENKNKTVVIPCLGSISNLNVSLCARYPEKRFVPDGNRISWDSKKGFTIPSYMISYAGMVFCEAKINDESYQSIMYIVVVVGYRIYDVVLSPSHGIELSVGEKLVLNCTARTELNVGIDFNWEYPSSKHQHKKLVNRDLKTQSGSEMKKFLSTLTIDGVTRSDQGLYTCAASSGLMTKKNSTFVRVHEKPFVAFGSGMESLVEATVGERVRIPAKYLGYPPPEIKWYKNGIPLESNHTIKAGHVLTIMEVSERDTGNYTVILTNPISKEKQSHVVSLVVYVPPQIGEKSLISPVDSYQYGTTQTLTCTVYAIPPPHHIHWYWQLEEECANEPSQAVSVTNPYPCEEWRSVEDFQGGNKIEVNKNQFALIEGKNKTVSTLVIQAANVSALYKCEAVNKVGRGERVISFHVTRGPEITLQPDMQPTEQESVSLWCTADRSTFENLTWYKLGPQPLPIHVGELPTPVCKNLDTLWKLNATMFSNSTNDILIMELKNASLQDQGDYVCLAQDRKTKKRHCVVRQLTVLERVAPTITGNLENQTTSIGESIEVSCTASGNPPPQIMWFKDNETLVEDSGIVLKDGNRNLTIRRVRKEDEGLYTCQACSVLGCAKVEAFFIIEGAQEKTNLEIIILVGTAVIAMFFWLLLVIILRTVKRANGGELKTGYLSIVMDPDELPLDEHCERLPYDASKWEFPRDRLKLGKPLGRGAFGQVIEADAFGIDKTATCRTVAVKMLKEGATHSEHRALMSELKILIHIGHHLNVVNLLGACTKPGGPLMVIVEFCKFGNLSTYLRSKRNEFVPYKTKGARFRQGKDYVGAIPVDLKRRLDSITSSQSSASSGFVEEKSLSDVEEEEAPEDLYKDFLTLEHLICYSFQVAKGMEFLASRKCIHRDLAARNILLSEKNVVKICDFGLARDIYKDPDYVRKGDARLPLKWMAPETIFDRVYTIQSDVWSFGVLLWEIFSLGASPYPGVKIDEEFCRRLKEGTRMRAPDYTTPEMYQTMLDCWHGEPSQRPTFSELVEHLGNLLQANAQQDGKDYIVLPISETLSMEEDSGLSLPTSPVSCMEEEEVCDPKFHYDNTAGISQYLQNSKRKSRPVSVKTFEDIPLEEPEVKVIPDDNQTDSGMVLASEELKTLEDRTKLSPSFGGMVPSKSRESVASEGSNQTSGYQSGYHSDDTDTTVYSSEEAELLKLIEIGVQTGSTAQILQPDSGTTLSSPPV

For orientation: IC50 means the concentration that inhibits the measured activity by half. A high value points to weaker potency. Turning to `C=CC(=O)Nc1cc2c(Nc3ccc(Br)cc3F)ncnc2cc1OCC1=NCCO1` [Example 109, N-[4-(4-bromo-2-fluoro-phenylamino)-7-(4,5-dihydro-oxazol-2-ylmethoxy)-quinazolin-6-yl]-acrylamide], the IC50 in assay [1] (Homo sapiens, 72 h) came to 10 µM; in assay [2] (Homo sapiens, 96 h) it was 486 nM; on EGFR1 (HER-1) it was 125 nM; on VEGFR2 (KDR) it was 478 nM; in assay [3] (Homo sapiens, A-431, 72 h), 147 nM; in assay [4] (Homo sapiens, SK-BR-3, 72 h), 572 nM.

`C=CC(=O)Nc1cc2c(Nc3ccc(Br)cc3F)ncnc2cc1OCCNC(=O)NCCC` [Example 34, N-{4-(4-bromo-2-fluoro-phenylamino)-7-[2-(3-propyl-ureido)-ethoxy]-quinazolin-6-yl}-acrylamide]: the IC50 in assay [1] (Homo sapiens, 72 h) worked out at 2.54 µM; in assay [2] (Homo sapiens, 96 h), 678 nM; on EGFR1 (HER-1), 26 nM; against VEGFR2 (KDR), 458 nM; in assay [3] (Homo sapiens, A-431, 72 h), 35 nM; in assay [4] (Homo sapiens, SK-BR-3, 72 h), 67 nM.

With `C=CC(=O)Nc1cc2c(Nc3ccc(Br)cc3F)ncnc2cc1OC[C@@H](C)NC(C)=O` [Example 82, (R)—N-[7-(2-acetylamino-propoxy)-4-(4-bromo-2-fluoro-phenylamino)-quinazolin-6-yl]-acrylamide], the IC50 in assay [1] (Homo sapiens, 72 h) came to 10 µM; in assay [2] (Homo sapiens, 96 h) it was 205 nM; against EGFR1 (HER-1), 29 nM; against VEGFR2 (KDR), 158 nM; in assay [3] (Homo sapiens, A-431, 72 h), 35 nM; in assay [4] (Homo sapiens, SK-BR-3, 72 h) it was 60 nM.

On to `C=CC(=O)Nc1cc2c(Nc3ccc(Br)cc3F)ncnc2cc1OCCNC(=O)CN1CC=CC1` [Example 108, N-{4-(4-bromo-2-fluoro-phenylamino)-7-[2-(2-2,5-dihydro-pyrrol-1-yl-acetylamino)-ethoxy]-quinazolin-6-yl}-acrylamide], for which the IC50 in assay [1] (Homo sapiens, 72 h) worked out at 2.95 µM; in assay [2] (Homo sapiens, 96 h), 497 nM; against EGFR1 (HER-1), 32 nM; against VEGFR2 (KDR), 486 nM; in assay [3] (Homo sapiens, A-431, 72 h), 41 nM; in assay [4] (Homo sapiens, SK-BR-3, 72 h), 103 nM.

Turning to `C=CC(=O)Nc1cc2c(Nc3ccc(Br)c(Cl)c3F)ncnc2cc1OCCNC(=O)OC` [Example 165, {2-[6-acryloylamino-4-(4-bromo-3-chloro-2-fluoro-phenylamino)-quinazolin-7-yloxy]-ethyl}-carbamic acid methylester], the IC50 in assay [1] (Homo sapiens, 72 h) is 9.77 µM; in assay [2] (Homo sapiens, 96 h), 189 nM; against EGFR1 (HER-1) it was 98 nM; on VEGFR2 (KDR) it was 79 nM; in assay [3] (Homo sapiens, A-431, 72 h) it was 137 nM; in assay [4] (Homo sapiens, SK-BR-3, 72 h) it was 198 nM.

For the compound `C=CC(=O)Nc1cc2c(Nc3ccc(Br)c(Cl)c3F)ncnc2cc1OCCNC(=O)CCN1CCCCC1` [Example 147, N-{4-(4-bromo-3-chloro-2-fluoro-phenylamino)-7-[2-(3-piperidin-1-yl-propionylamino)-ethoxy]-quinazolin-6-yl}-acrylamide], the IC50 in assay [1] (Homo sapiens, 72 h) was 9.53 µM; in assay [2] (Homo sapiens, 96 h), 167 nM; on EGFR1 (HER-1), 12 nM; on VEGFR2 (KDR) it was 79 nM; in assay [3] (Homo sapiens, A-431, 72 h), 40 nM; in assay [4] (Homo sapiens, SK-BR-3, 72 h), 125 nM.

On to `C=CC(=O)Nc1cc2c(Nc3cc(Cl)c(Cl)cc3F)ncnc2cc1OCCNC(=O)CS(C)(=O)=O` [Example 139, N-{4-(4,5-dichloro-2-fluoro-phenylamino)-7-[2-(2-methanesulfonyl-acetylamino)-ethoxy]-quinazolin-6-yl}-acrylamide], for which the IC50 was 2.83 µM in assay [1] (Homo sapiens, 72 h); 682 nM in assay [2] (Homo sapiens, 96 h); 40 nM at EGFR1 (HER-1); 657 nM against VEGFR2 (KDR); 48 nM in assay [3] (Homo sapiens, A-431, 72 h); 109 nM in assay [4] (Homo sapiens, SK-BR-3, 72 h).

For the compound “N-{2-[6-acryloylamino-4-(4-bromo-2,3-difluoro-phenylamino)-quinazolin-7-oxy]-ethyl}-4-dimethylamino-butylamide [Example 127]”, the IC50 in assay [1] (72 hours) was 6.51 µM; in assay [2] (96 hours) it was 676 nM; at EGFR1 (HER-1) it was 568 nM; against VEGFR2 (KDR) it was 958 nM; in assay [3] (72 hours), 698 nM; in assay [4] (72 hours), 1020 nM.

Regarding `C=CC(=O)Nc1cc2c(Nc3ccc(Br)cc3F)ncnc2cc1OCC(C)NC(C)=O` (stereo not drawn) [Example 81, N-[7-(2-acetylamino-propoxy)-4-(4-bromo-2-fluoro-phenylamino)-quinazolin-6-yl]-acrylamide], the IC50 came to 2.5 µM in assay [1] (Homo sapiens, 72 h); 205 nM in assay [2] (Homo sapiens, 96 h); 154 nM against EGFR1 (HER-1); 41 nM against VEGFR2 (KDR); 365 nM in assay [3] (Homo sapiens, A-431, 72 h); 896 nM in assay [4] (Homo sapiens, SK-BR-3, 72 h).

As to `C=CC(=O)Nc1cc2c(Nc3ccc(F)c(F)c3F)ncnc2cc1OCC1CCN(C(C)=O)CC1` [Example 7, N-[7-(1-acetyl-piperidin-4-ylmethoxy)-4-(2,3,4-trifluoro-phenylamino)-quinazolin-6-yl]-acrylamide], the IC50 in assay [1] (Homo sapiens, 72 h) stood at 9.57 µM; in assay [2] (Homo sapiens, 96 h) it was 99 nM; at EGFR1 (HER-1), 26 nM; against VEGFR2 (KDR), 250 nM; in assay [3] (Homo sapiens, A-431, 72 h), 38 nM; in assay [4] (Homo sapiens, SK-BR-3, 72 h) it was 67 nM.

On to `C=CC(=O)Nc1cc2c(Nc3ccc(Br)cc3F)ncnc2cc1OCCCNC` [Example 17, N-[4-(4-bromo-2-fluoro-phenylamino)-7-(3-methylamino-propoxy)-quinazolin-6-yl]-acrylamide], for which the IC50 in assay [1] (Homo sapiens, 72 h) worked out at 2.02 µM; in assay [2] (Homo sapiens, 96 h), 87 nM; at EGFR1 (HER-1), 3 nM; at VEGFR2 (KDR) it was 154 nM; in assay [3] (Homo sapiens, A-431, 72 h) it was 11 nM; in assay [4] (Homo sapiens, SK-BR-3, 72 h), 64 nM.

In the case of `C=CC(=O)Nc1cc2c(Nc3ccc(Br)cc3F)ncnc2cc1OCCNC(=O)N1CCOCC1` [Example 93, morpholine-4-carboxylic acid {2-[6-acryloylamino-4-(4-bromo-2-fluoro-phenylamino)-quinazolin-7-yloxy]-ethyl}-amide], the IC50 was 10 µM in assay [1] (Homo sapiens, 72 h); 269 nM in assay [2] (Homo sapiens, 96 h); 36 nM on EGFR1 (HER-1); 197 nM on VEGFR2 (KDR); 46 nM in assay [3] (Homo sapiens, A-431, 72 h); 53 nM in assay [4] (Homo sapiens, SK-BR-3, 72 h).
